Reference: US20200095296A1, “USE OF PEPTIDES AS BIOMARKERS IN THE DIAGNOSIS, CONFIRMATION AND TREATMENT OF A NEUROLOGICAL DISORDER AND TCR AND/OR HLA IMMUNOPROFILING IN NEURODEGENERATIVE DISEASE” (THE TRUSTEES OF COLUMBIA UNIVERSITY IN THE CITY OF NEW YORK, priority 2017, published 2020)
Substitutions are numbered along the chain they refer to. pIC50: −log10 of the molar value. Read-outs that look alike come from different tables or passages of the source.

Columns and labels:
DPB1*03:01 = biological target: T1, DPB1*03:01 (Homo sapiens, UniProt P04440+P20036, A65V/A84D/A85E/E86D/F38Y/G113D/G114E/G40L/I94L/L37V/M105V/M116V/P115A/R125K/T199I); assay: competition binding assay, purified HLA DPB1*03:01; settings: purified HLA, radiolabeled peptide competition; nM; read-out: binding to DPB1*03:01 (IC50)
T1 sequence (P20036 29-260): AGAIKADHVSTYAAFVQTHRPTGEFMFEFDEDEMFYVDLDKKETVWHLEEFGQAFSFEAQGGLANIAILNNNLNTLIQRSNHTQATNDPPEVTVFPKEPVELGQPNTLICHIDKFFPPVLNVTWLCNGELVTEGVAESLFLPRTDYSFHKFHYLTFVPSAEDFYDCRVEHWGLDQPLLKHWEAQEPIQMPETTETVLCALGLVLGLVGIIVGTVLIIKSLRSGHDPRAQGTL
T1 sequence (P04440 30-258 L37V/F38Y/G40L/A65V/A84D/A85E/E86D/I94L/M105V/G113D/G114E/P115A/M116V/R125K/T199I): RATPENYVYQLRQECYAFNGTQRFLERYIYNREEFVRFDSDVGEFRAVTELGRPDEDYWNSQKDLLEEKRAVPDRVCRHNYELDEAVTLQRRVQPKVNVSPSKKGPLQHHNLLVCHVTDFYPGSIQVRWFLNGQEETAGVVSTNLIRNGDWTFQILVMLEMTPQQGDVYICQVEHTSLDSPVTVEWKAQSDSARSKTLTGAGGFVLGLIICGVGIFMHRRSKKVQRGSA

DPB1*05:01 = biological target: T2, DPB1*05:01 (Homo sapiens, UniProt P04440+P20036, A65V/A84E/F191V/F64L/G113D/G114E/K142R/L158P/M116V/M62Q/P115A/Q81R/R125K/T114A/T199I/T259P/V234M); assay: competition binding assay, purified HLA DPB1*05:01; settings: for IC50: purified HLA, radiolabeled peptide competition, nM, read-out: binding to DPB1*05:01 (IC50)
T2 sequence (P20036 29-260 M62Q/Q81R/T114A/K142R/L158P/F191V/T259P): T1 sequence (P20036 29-260) with M34Q, Q53R, T86A, K114R, L130P, F163V, T231P
T2 sequence (P04440 30-258 F64L/A65V/A84E/G113D/G114E/P115A/M116V/R125K/T199I/V234M): T1 sequence (P04440 30-258 L37V/F38Y/G40L/A65V/A84D/A85E/E86D/I94L/M105V/G113D/G114E/P115A/M116V/R125K/T199I) with V8L, Y9F, L11G, F35L, D55E, E56A, D57E, L65I, V76M, V205M

DPB1*04:01 = biological target: T3, DPB1*04:01 (Homo sapiens, UniProt P04440); assay: competition binding assay, purified HLA DPB1*04:01; settings: for IC50: purified HLA, radiolabeled peptide competition, nM, read-out: binding to DPB1*04:01 (IC50)
T3 sequence (P04440 30-258): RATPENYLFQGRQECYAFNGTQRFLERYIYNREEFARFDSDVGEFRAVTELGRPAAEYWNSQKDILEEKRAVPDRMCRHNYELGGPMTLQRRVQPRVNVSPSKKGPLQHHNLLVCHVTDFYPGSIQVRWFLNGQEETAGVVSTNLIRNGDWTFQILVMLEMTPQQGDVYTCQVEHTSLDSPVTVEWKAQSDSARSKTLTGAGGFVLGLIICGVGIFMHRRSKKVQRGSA
T3 sequence (P20036 29-260 partner): T1 sequence (P20036 29-260)

DPB1*02:01 = biological target: T4, DPB1*02:01 (Homo sapiens, UniProt P04440+P20036, A65V/A84D/A85E/K98E); assay: competition binding assay, purified HLA DPB1*02:01; settings: for IC50: purified HLA, radiolabeled peptide competition, nM, read-out: binding to DPB1*02:01 (IC50)
T4 sequence (P20036 29-260): T1 sequence (P20036 29-260)
T4 sequence (P04440 30-258 A65V/A84D/A85E/K98E): T3 sequence (P04440 30-258) with A36V, A55D, A56E, K69E

DPB1*04:02 = biological target: T5, DPB1*04:02 (Homo sapiens, UniProt P04440+P20036, A65V/A84D/A85E/L207M); assay: competition binding assay, purified HLA DPB1*04:02; settings: for IC50: purified HLA, radiolabeled peptide competition, nM, read-out: binding to DPB1*04:02 (IC50)
T5 sequence (P04440 30-258 A65V/A84D/A85E/L207M): T3 sequence (P04440 30-258) with A36V, A55D, A56E, L178M
T5 sequence (P20036 29-260): T1 sequence (P20036 29-260)

HLA A*11:01 = HLA A*11:01 (Homo sapiens, UniProt P04439, A114D/D185E/E176A/F33Y/L180Q/S129P/T187R); assay: competition binding assay, purified HLA A*11:01 molecules; settings: in vitro
DRB4*01:01 = DRB4*01:01 (Homo sapiens, UniProt P01903+P13762, G164S); assay: competition binding assay, purified HLA DRB4*01:01; settings: purified HLA, radiolabeled peptide competition; nM; read-out: binding to DRB4*01:01 (IC50)
DRB5*01:01 = DRB5*01:01 (Homo sapiens, UniProt P01903+Q30154); assay: competition binding assay, purified HLA DRB5*01:01; settings: purified HLA, radiolabeled peptide competition; nM; read-out: binding to DRB5*01:01 (IC50)
PBMC = assay: IFNγ and IL-5 dual ELISPOT after 14 days culture of PBMC with α-syn peptide pools; format: cell-based, human; settings: IFNγ and IL-5 ELISPOT
Method: To determine whether α-syn derived peptides were recognized by T cells, responses were assayed to pools that each contained ˜twenty 9-10aa peptides predicted to bind common HLA class I types 15, and 15aa peptides spanning the protein that could elicit HLA class II responses. PBMCs from PD and HC were stimulated for 14 days, and IFNγ and IL-5 responses were measured by dual color ELISPOT, enabling quantification of responsive cells. Positive pools were deconvoluted to identify the peptides eliciting cytokine responses. IFNγ was used as a representative cytokine to detect CD8+/HLA class I and CD4+ Th1/Class II T cells, and IL-5 as a representative cytokine secreted by CD4+ Th2/Class II T cells. […] No cells producing both IL-5 and IFNγ were detected. […]
After 14 days of culture with individual peptide pools (5 μg/ml), the response to pools and individual peptides (5 μg/ml) was measured by IFNγ and IL-5 dual ELISPOT 37. […]
To determine whether α-syn-derived peptides were recognized by T cells, responses to pools that each contained approximately twenty peptides of 9-10 amino acids (a.a.) predicted to bind common HLA class I types, (Vita, R. et al. The immune epitope database (IEDB) 3.0. Nucleic Acids Res. 43, D405-D412 (2015)) and peptides of 15 amino acids spanning the protein that could elicit HLA class II responses were assayed. […] No cells producing both IL-5 and IFNγ were detected. […]

| Molecule | IC50 (DPB1*03:01) [nM] | IC50 (DPB1*05:01) [nM] | IC50 (DPB1*04:01) [nM] | IC50 (DPB1*02:01) [nM] | IC50 (DPB1*04:02) [nM] | other results |
| --- | --- | --- | --- | --- | --- | --- |
| CSCC[C@H](NC(=O)[C@@H](N)CCC(=O)O)C(=O)N1CCC[C@H]1C(=O)N[C@@H](CO)C(=O)N[C@@H](CCC(=O)O)C(=O)N[C@@H](CCC(=O)O)C(=O)NCC(=O)N[C@@H](Cc1ccc(O)cc1)C(=O)N[C@@H](CCC(N)=O)C(=O)N[C@@H](CC(=O)O)C(=O)N[C@@H](Cc1ccc(O)cc1)C(=O)N[C@@H](CCC(=O)O)C(=O)N1CCC[C@H]1C(=O)N[C@@H](CCC(=O)O)C(=O)N[C@@H](C)C(=O)O | > 10000 | > 10000 | > 10000 | > 10000 | > 10000 |  |
| GVLYVGSKTK [α-syn 10 mer aa36-45] |  |  |  |  |  | binding to purified HLA A*11:01 molecules (IC50) (HLA A*11:01): bound poorly |
| CSCC[C@H](NC(=O)[C@H](CCC(=O)O)NC(=O)[C@H](Cc1ccc(O)cc1)NC(=O)[C@H](C)NC(=O)[C@H](CCC(=O)O)NC(=O)[C@H](CC(N)=O)NC(=O)[C@H](CC(=O)O)NC(=O)[C@@H]1CCCN1C(=O)[C@H](CC(=O)O)NC(=O)[C@@H](NC(=O)[C@@H]1CCCN1C(=O)[C@@H](N)CCSC)C(C)C)C(=O)N1CCC[C@H]1C(=O)N[C@@H](COP(=O)(O)O)C(=O)N[C@@H](CCC(=O)O)C(=O)O | > 10000 | > 10000 | > 10000 | > 10000 | > 10000 | IC50 (DRB4*01:01): > 10000 nM; IC50 (DRB5*01:01): > 10000 nM |
| VLYVGSKTKK [10 mer aa37-46] |  |  |  |  |  | binding to purified HLA A*11:01 molecules (IC50) (HLA A*11:01): bound poorly |
| CSCC[C@H](NC(=O)[C@H](CCC(=O)O)NC(=O)[C@H](Cc1ccc(O)cc1)NC(=O)[C@H](C)NC(=O)[C@H](CCC(=O)O)NC(=O)[C@H](CC(N)=O)NC(=O)[C@H](CC(=O)O)NC(=O)[C@@H]1CCCN1C(=O)[C@H](CC(=O)O)NC(=O)[C@@H](NC(=O)[C@@H]1CCCN1C(=O)[C@@H](N)CCSC)C(C)C)C(=O)N1CCC[C@H]1C(=O)N[C@@H](CO)C(=O)N[C@@H](CCC(=O)O)C(=O)O | > 10000 | > 10000 | > 10000 | > 10000 | > 10000 |  |
| CC(C)C[C@H](NC(=O)[C@@H](NC(=O)CNC(=O)[C@H](CCC(=O)O)NC(=O)[C@H](CCCCN)NC(=O)[C@@H](NC(=O)[C@@H](N)CCCCN)[C@@H](C)O)C(C)C)C(=O)N[C@@H](Cc1ccc(OP(=O)(O)O)cc1)C(=O)N[C@H](C(=O)NCC(=O)N[C@@H](CO)C(=O)N[C@@H](CCCCN)C(=O)N[C@H](C(=O)N[C@@H](CCCCN)C(=O)N[C@@H](CCC(=O)O)C(=O)O)[C@@H](C)O)C(C)C |  |  |  |  |  | pIC50 (DPB1*05:01): 6.11; pIC50 (DPB1*04:01): 6.03; pIC50 (DPB1*02:01): 6.21; pIC50 (DPB1*04:02): 5.80 |
| GKTKEGVLYVGSKTK [α-syn 15 mer aa31-45, Y39 region] |  |  |  |  |  | cytokine response elicited (PBMC): apparent Class II restricted IL-5 and IFNγ response; cytokine response elicited (PBMC; listed as GKEGVLYVGSKTK): apparent class II restricted IL-5 and IFNy response |
